Patent US10131652B2, “Pyrimidinyloxy benzene derivatives as herbicides” (E. I. DU PONT DE NEMOURS AND COMPANY, priority 2014, dated 2018)
Read-outs that look alike come from different tables or passages of the source.

Assays:
Format in all cases: in vivo
[1] = test system: chamomile (scentless chamomile, Matricaria inodora); assay: Test E pre-/postemergence plant response; conditions: Tripleurospermum inodorum, post-emergence, Postemergence, scale 0 to 100, read-out: Plant response rating, Chamomile
Procedure, shortened: (§1)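 Pre-emergence: seeds sown in silt loam soil and sprayed with test chemicals in a non-phytotoxic solvent/surfactant mix. Post-emergence: plants at 2–18 cm (1- to 4-leaf stage) in peat/vermiculite medium treated with the same formulation. Visual rating versus controls after 7–21 days, 0 (no effect) to 100 (complete control).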

[2] = test system: wild mustard (Sinapis arvensis); assay: Test E pre-/postemergence plant response; conditions: Brassica, scale 0 to 100, read-out: Plant response rating, Mustard, Wild; for pest or weed control at 16 g/ha: 16 g ai/ha; for pest or weed control at 31 g/ha: 31 g ai/ha; for pest or weed control at 62 g/ha: 62 g ai/ha; for pest or weed control at 125 g/ha: 125 g ai/ha
Procedure, shortened: as §1

[3] = test system: blackgrass (Alopecurus myosuroides); assay: Test E pre-/postemergence plant response; conditions: scale 0 to 100, read-out: Plant response rating, Blackgrass; for pest or weed control at 16 g/ha: 16 g ai/ha; for pest or weed control at 31 g/ha: 31 g ai/ha; for pest or weed control at 62 g/ha: 62 g ai/ha; for pest or weed control at 125 g/ha: 125 g ai/ha
Procedure, shortened: as §1

[4] = test system: Italian ryegrass (Lolium multiflorum); assay: Test E pre-/postemergence plant response; conditions: scale 0 to 100, read-out: Plant response rating, Ryegrass, Italian; for pest or weed control at 16 g/ha: 16 g ai/ha; for pest or weed control at 31 g/ha: 31 g ai/ha; for pest or weed control at 62 g/ha: 62 g ai/ha; for pest or weed control at 125 g/ha: 125 g ai/ha
Procedure, shortened: as §1

[5] = test system: barnyardgrass (Echinochloa crus-galli); assay: Test D flooded paddy test plant response; conditions: Flood (flooded paddy test), visual rating on scale 0 to 100 (0 no effect, 100 complete control), 13 to 15 days
Description: (§2) Plant species in the flooded paddy test consisted of rice (Oryza sativa), small-flower umbrella sedge (Cyperus difformis), ducksalad (Heteranthera limosa), and bamyardgrass (Echinochloa crus-galli) grown to the 2-leaf stage for testing. At time of treatment, test pots were flooded to 3 cm above the soil surface, treated by application of test compounds directly to the paddy water, and then maintained at that water depth for the duration of the test. Treated plants and controls were maintained in a greenhouse for 13 to 15 days, after which time all species were compared to controls and visually evaluated. Plant response ratings, summarized in Table D, are based on a scale of 0 to 100 where 0 is no effect and 100 is complete control. A dash (-) response means no test result.

rice (Oryza sativa) = assay: Test D flooded paddy test plant response; conditions: Flood (flooded paddy test), visual rating on scale 0 to 100 (0 no effect, 100 complete control), 13 to 15 days
Description: as §2

[6] = test system: small-flower umbrella sedge (Cyperus difformis); assay: Test D flooded paddy test plant response; conditions: Flood (flooded paddy test), visual rating on scale 0 to 100 (0 no effect, 100 complete control), 13 to 15 days
Description: as §2

[7] = test system: ducksalad (Heteranthera limosa); assay: Test D flooded paddy test plant response; conditions: Flood (flooded paddy test), visual rating on scale 0 to 100 (0 no effect, 100 complete control), 13 to 15 days
Description: as §2

Horseweed = assay: Test F postemergence plant response; conditions: scale 0 to 100

## FC(F)c1cc(-c2ccccc2Oc2ncc(Cl)cn2)on1 [Compound 53, 5-chloro-2-[2-[3-(difluoromethyl)-5-isoxazolyl]phenoxy]pyrimidine]
[1]; 16 g ai/ha
  pest or weed control at 16 g/ha: 5%
[1]; 31 g ai/ha
  pest or weed control at 31 g/ha: 5%
[1]; 62 g ai/ha
  pest or weed control at 62 g/ha: 5%
[1]; 125 g ai/ha
  pest or weed control at 125 g/ha: 0%
[2]; post-emergence, Postemergence
  pest or weed control at 16 g/ha: 65%
  pest or weed control at 31 g/ha: 75%
  pest or weed control at 62 g/ha: 95%
  pest or weed control at 125 g/ha: 95%
[2]; pre-emergence, Preemergence
  pest or weed control at 16 g/ha: 90%
  pest or weed control at 31 g/ha: 100%
  pest or weed control at 62 g/ha: 100%
  pest or weed control at 125 g/ha: 100%
[3]; post-emergence, Postemergence
  pest or weed control at 16 g/ha: 0%
  pest or weed control at 31 g/ha: 5%
  pest or weed control at 62 g/ha: 10%
  pest or weed control at 125 g/ha: 25%
[3]; pre-emergence, Preemergence
  pest or weed control at 16 g/ha: 10%
  pest or weed control at 31 g/ha: 10%
  pest or weed control at 62 g/ha: 25%
  pest or weed control at 125 g/ha: 30%
[4]; post-emergence, Postemergence
  pest or weed control at 16 g/ha: 0%
  pest or weed control at 31 g/ha: 0%
  pest or weed control at 62 g/ha: 5%
  pest or weed control at 125 g/ha: 5%
[4]; pre-emergence, Preemergence
  pest or weed control at 16 g/ha: 10%
  pest or weed control at 31 g/ha: 10%
  pest or weed control at 62 g/ha: 25%
  pest or weed control at 125 g/ha: 25%
[5]; 31 g ai/ha
  Plant response rating, Barnyardgrass: 0
[5]; 62 g ai/ha
  Plant response rating, Barnyardgrass: 0
[5]; 125 g ai/ha
  Plant response rating, Barnyardgrass: 0
[5]; 250 g ai/ha
  Plant response rating, Barnyardgrass: 0
Rice (Oryza sativa); 31 g ai/ha
  Plant response rating, Rice: 0
Rice (Oryza sativa); 62 g ai/ha
  Plant response rating, Rice: 0
Rice (Oryza sativa); 125 g ai/ha
  Plant response rating, Rice: 0
Rice (Oryza sativa); 250 g ai/ha
  Plant response rating, Rice: 0
[6]; 31 g ai/ha
  Plant response rating, Sedge, Umbrella: 0
[6]; 62 g ai/ha
  Plant response rating, Sedge, Umbrella: 0
[6]; 125 g ai/ha
  Plant response rating, Sedge, Umbrella: 70
[6]; 250 g ai/ha
  Plant response rating, Sedge, Umbrella: 75
[7]; 31 g ai/ha
  Plant response rating, Ducksalad: 40
[7]; 62 g ai/ha
  Plant response rating, Ducksalad: 50
[7]; 125 g ai/ha
  Plant response rating, Ducksalad: 80
[7]; 250 g ai/ha
  Plant response rating, Ducksalad: 80

## Fc1ccc(Oc2ncc(Cl)cn2)c(-c2cc(C(F)F)on2)c1Cl [Compound 96]
Horseweed; 16 g ai/ha Postemergence
  Plant response rating, Horseweed: 0
Horseweed; 31 g ai/ha Postemergence
  Plant response rating, Horseweed: 0
Horseweed; 62 g ai/ha Postemergence
  Plant response rating, Horseweed: 0
Horseweed; 125 g ai/ha Postemergence
  Plant response rating, Horseweed: 10

## CC(F)(F)c1cc(-c2ccccc2Oc2ncc(Br)cn2)no1 [Compound 149]
Horseweed; 16 g ai/ha Postemergence
  Plant response rating, Horseweed: 0
Horseweed; 31 g ai/ha Postemergence
  Plant response rating, Horseweed: 20
Horseweed; 62 g ai/ha Postemergence
  Plant response rating, Horseweed: 10
Horseweed; 125 g ai/ha Postemergence
  Plant response rating, Horseweed: 20

## CC(F)(F)c1cc(-c2ccccc2Oc2ncc(Cl)cn2)on1 [Compound 178]
[5]; 31 g ai/ha
  Plant response rating, Barnyardgrass: 0
[5]; 62 g ai/ha
  Plant response rating, Barnyardgrass: 0
[5]; 125 g ai/ha
  Plant response rating, Barnyardgrass: 0
[5]; 250 g ai/ha
  Plant response rating, Barnyardgrass: 0
Rice (Oryza sativa); 31 g ai/ha
  Plant response rating, Rice: 0
Rice (Oryza sativa); 62 g ai/ha
  Plant response rating, Rice: 0
Rice (Oryza sativa); 125 g ai/ha
  Plant response rating, Rice: 0
Rice (Oryza sativa); 250 g ai/ha
  Plant response rating, Rice: 0
[6]; 31 g ai/ha
  Plant response rating, Sedge, Umbrella: 30
[6]; 62 g ai/ha
  Plant response rating, Sedge, Umbrella: 60
[6]; 125 g ai/ha
  Plant response rating, Sedge, Umbrella: 60
[6]; 250 g ai/ha
  Plant response rating, Sedge, Umbrella: 75
[7]; 31 g ai/ha
  Plant response rating, Ducksalad: 40
[7]; 62 g ai/ha
  Plant response rating, Ducksalad: 65
[7]; 125 g ai/ha
  Plant response rating, Ducksalad: 70
[7]; 250 g ai/ha
  Plant response rating, Ducksalad: 70

## FC(F)c1cc(-c2c(Cl)cccc2Oc2ncc(Cl)cn2)no1 [Compound 179]
Horseweed; 16 g ai/ha Postemergence
  Plant response rating, Horseweed: 0
Horseweed; 31 g ai/ha Postemergence
  Plant response rating, Horseweed: 0
Horseweed; 62 g ai/ha Postemergence
  Plant response rating, Horseweed: 10
Horseweed; 125 g ai/ha Postemergence
  Plant response rating, Horseweed: 10

## N#Cc1cccc(Oc2ncc(Cl)cn2)c1-c1cc(C(F)F)on1 [Compound 180]
[5]; 31 g ai/ha
  Plant response rating, Barnyardgrass: 0
[5]; 62 g ai/ha
  Plant response rating, Barnyardgrass: 0
[5]; 125 g ai/ha
  Plant response rating, Barnyardgrass: 10
[5]; 250 g ai/ha
  Plant response rating, Barnyardgrass: 10
Rice (Oryza sativa); 31 g ai/ha
  Plant response rating, Rice: 0
Rice (Oryza sativa); 62 g ai/ha
  Plant response rating, Rice: 0
Rice (Oryza sativa); 125 g ai/ha
  Plant response rating, Rice: 0
Rice (Oryza sativa); 250 g ai/ha
  Plant response rating, Rice: 0
[6]; 31 g ai/ha
  Plant response rating, Sedge, Umbrella: 0
[6]; 62 g ai/ha
  Plant response rating, Sedge, Umbrella: 50
[6]; 125 g ai/ha
  Plant response rating, Sedge, Umbrella: 75
[6]; 250 g ai/ha
  Plant response rating, Sedge, Umbrella: 80
[7]; 31 g ai/ha
  Plant response rating, Ducksalad: 0
[7]; 62 g ai/ha
  Plant response rating, Ducksalad: 0
[7]; 125 g ai/ha
  Plant response rating, Ducksalad: 75
[7]; 250 g ai/ha
  Plant response rating, Ducksalad: 75

## FC(F)c1cc(-c2ccccc2Oc2ncc(Br)cn2)on1 [Compound 212]
Horseweed; 16 g ai/ha Postemergence
  Plant response rating, Horseweed: 0
Horseweed; 31 g ai/ha Postemergence
  Plant response rating, Horseweed: 0
Horseweed; 62 g ai/ha Postemergence
  Plant response rating, Horseweed: 15
Horseweed; 125 g ai/ha Postemergence
  Plant response rating, Horseweed: 10

## Fc1ccc(Oc2ncc(Cl)cn2)c(-c2cc(C(F)(Cl)Cl)on2)c1 [Compound 221]
Horseweed; 16 g ai/ha Postemergence
  Plant response rating, Horseweed: 0
Horseweed; 31 g ai/ha Postemergence
  Plant response rating, Horseweed: 5
Horseweed; 62 g ai/ha Postemergence
  Plant response rating, Horseweed: 10
Horseweed; 125 g ai/ha Postemergence
  Plant response rating, Horseweed: 30
[5]; 62 g ai/ha
  Plant response rating, Barnyardgrass: 40
[5]; 250 g ai/ha
  Plant response rating, Barnyardgrass: 60
Rice (Oryza sativa); 62 g ai/ha
  Plant response rating, Rice: 15
Rice (Oryza sativa); 250 g ai/ha
  Plant response rating, Rice: 40
[6]; 62 g ai/ha
  Plant response rating, Sedge, Umbrella: 80
[6]; 250 g ai/ha
  Plant response rating, Sedge, Umbrella: 95
[7]; 62 g ai/ha
  Plant response rating, Ducksalad: 80
[7]; 250 g ai/ha
  Plant response rating, Ducksalad: 90
